Patent publication US20260317367A1, “SALTS INCLUDING CRYSTALLINE SALTS OF 25-HYDROXY-CHOLEST-5-EN-3-SULFATE AND METHODS FOR PREPARING SAME” (Durect Corporation, priority 2022, published 2026)
“Also recorded” adds a separate entry of the source. Counter-ions that a name gives are not always drawn. Like-named read-outs stand apart in the source and are kept apart here.

Tests used:
Format in all cases: physicochemical
[1] = Solubility of 25HC3S salts after one day at room temperature (HPLC, as free acid); conditions: one day
Description: These fluids were prepared per the instruction listed by Biorelevant (Biorelevant.com). Each buffer concentrate was diluted with water and mixed well. FaSSIF, FeSSIF, FaSSGF powder was added to each buffer and mixed to completely dissolve the powder. Buffers were stored at room temperature and used within 48 hours of preparation.
(§1) 25HC3S salts were weighed in 8 mL or 4 mL glass vials with Teflon coated screw caps. Aliquots of each solvent were added to each sample and vortexed for about one minute until excess solid remained. Samples were placed on shaker at room temperature with 210 motion per minute shaking.
(§2) After one day, samples were pulled and checked if excess solid was present. About 1.5 mL aliquot of each sample was centrifuged at 12000 rpm for 12 to 15 minutes. […] Aliquots of the top clear solution of each centrifuged sample in MeOH, EtOH, IPA and ACN were diluted with diluent (water:MeOH 95:5) and assayed by HPLC. Samples of the salts in aqueous media were assayed by HPLC without dilution.
All solubility sample solutions of 25HC3S salts were determined using HPLC. A linear standard curve was constructed using standards with concentration between 11 μg/mL to 1.5 mg/mL as free acid forcing the curve to origin. Solubilities are reported as mg/mL free acid 25HC3S. Detection limit (LOD) of the HPLC method was calculated as 0.0007 mg/mL.

[2] = Final pH of the solubility sample solutions in aqueous media; conditions: for pH of the solubility sample, 0.9% Sodium Chloride: 0.9% sodium chloride (blank 5.8); for pH of the solubility sample, 5% Dextrose: 5% dextrose (blank 4.7); for pH of the solubility sample, FaSSGF: FaSSGF (blank 1.5, 1.6); for pH of the solubility sample, FaSSIF: FaSSIF (blank 6.5, 6.5); for pH of the solubility sample, FeSSIF: FeSSIF (blank 4.9, 5.0); for pH of the solubility sample, Water: water (blank 6.3)
Description: as §1, §2
5.1 Solubility of 25HC3S Salts in Aqueous Media

[3] = Appearance (color, clumping, flowability) of stored 25HC3S salts
Description: Approximately 25 mg of each crystalline 25HC3S salt was added to 20 mL glass vials and each powder weight was recorded. Four vials were prepared for each salt and stored at 2-8° C. or 80° C. according to Table B2. The samples were scheduled initially to pull for testing at 3 weeks and 6 weeks' time points.
For those […] salts, the remaining vials stored at 2-8° C. for 3 weeks were allocated for storage at 60° C. for 1 week. Additional stability data was generated according to Table B3.
For appearance, each unopened vial was visually examined for color, clumping, and flowability.

[4] = Hausner ratio and compressibility index of 25HC3S salts; conditions: for Compressibility Index: Table C3 heads this index in %
Description: Although there are some variations in the method of determining the compressibility index and Hausner ratio, the basic procedure is to measure the unsettled apparent volume, VO, and the final tapped volume, Vf, of the powder after tapping the material until no further volume changes occur. The compressibility index and the Hausner ratio are calculated as follows: […]
Both the Hausner ratio and the compressibility index are empirically established. The Hausner ratio and compressibility index are not absolute properties of a material; its value can vary depending on the methodology used to determine them. In this case, since the 14 salts of 25HC3S were measured the same way, the relative values should be accurate.
Table C3, from USP <1174> Powder Flow, describes the flow character of the powder based on the compressibility index and Hausner ratio values.
Powder was carefully poured into a 5 mL glass graduated cylinder (to contain) until it was close to or at 5.0 mL. This initial volume was recorded as Vo. The graduated cylinder was tapped on a hard surface for 200 times and the volume was recorded. The cylinder was tapped 100 times more, and the final volume Vf was recorded. Typically, the volume after 200 taps was identical to after 300 taps, or within 0.1 mL.

[5] = Dynamic vapor sorption (DVS), hygroscopicity
Text: Dynamic vapor sorption (DVS) measures the uptake of a vapor (typically water) by a sample when exposed to a changing relative humidity. The loss of water can also be measured as relative humidity is decreased. Hygroscopic materials tend to absorb water more readily than non-hygroscopic. In some cases, hydrates absorb water to create higher-order hydrates (e.g., a monohydrate converting to a dihydrate when exposed to increasingly humid conditions). In some salts of the disclosure, moisture is retained upon exposure in a DVS experiment and little or no weight loss is observed upon heating from room temperature. In such experiments, the hygroscopic nature of the salt under study may indicate the formation of a hydrate from an anhydrate. […] Exemplary methods for collecting DVS data are set forth in Example 26.
Dynamic vapor sorption data was collected on a Surface Measurement System DVS Intrinsic instrument. The samples were not dried prior to analysis. Sorption and desorption data were collected over a range from 5% to 95% RH in 10% RH increments under a nitrogen purge. The equilibrium criteria used for the analyses were 0.001 dm/dt weight change in 5 minutes with a minimum step time of 30 minutes and maximum equilibration time of 180 minutes with a 3 minute data logging interval. Data were not corrected for the initial moisture content of the sample.

In the case of C[C@H](CCCC(C)(C)O)[C@H]1CC[C@H]2[C@@H]3CC=C4C[C@@H](OS(=O)(=O)O)CC[C@]4(C)[C@H]3CC[C@]12C [Salt #14], the solubility at 24 h ([1]; 0.9% nacl, room temperature, as free acid, ND = not detected, detection limit 0.7 μg/mL, read-out: Solubility in 0.9% NaCl) is reported as 8 µg/mL, the solubility at 24 h ([1]; 5% dextrose, room temperature, as free acid, ND = not detected, detection limit 0.7 μg/mL, read-out: Solubility in 5% Dextrose) is reported as 38 µg/mL and the “Solubility in FaSSGF (in words)” value ([1]; FaSSGF, room temperature) is reported as “low solubility”. The “Solubility in FaSSGF” value ([1]; Fasted State Simulated Gastric Fluid, pH 1.6, room temperature, as free acid, LOD 0.0007 mg/mL) was “no solubilized drug was detected”, the solubility at 24 h ([1]; acetonitrile, organic solvent or mixture, acetonitrile, room temperature, as free acid, read-out: Solubility in ACN) was 800 µg/mL and the solubility at 24 h ([1]; ethanol, organic solvent or mixture, ethanol, room temperature, as free acid, ≥ = did not reach saturation, read-out: Solubility in EtOH) was 1700 µg/mL. It also gave a solubility at 24 h ([1]; fassif, room temperature, as free acid, read-out: Solubility in FaSSIF) of 72 µg/mL, a solubility at 24 h ([1]; fessif, room temperature, as free acid, read-out: Solubility in FeSSIF) of 676 µg/mL and a solubility at 24 h ([1]; isopropyl alcohol, organic solvent or mixture, isopropyl alcohol, room temperature, as free acid, read-out: Solubility in IPA) of 900 µg/mL. The solubility at 24 h ([1]; methanol, organic solvent or mixture, methanol, room temperature, as free acid, ≥ = did not reach saturation, read-out: Solubility in MeOH) was 5900 µg/mL, the solubility at 24 h ([1]; water, room temperature, as free acid, ND = not detected, detection limit 0.7 μg/mL, read-out: Solubility in H2O) was 40 µg/mL and the “pH of the solubility sample, 0.9% Sodium Chloride” value (“pH … 0.9% Sodium Chloride” for short) [2] was 8.4. For the same compound, the “pH of the solubility sample, 5% Dextrose” value [2] was 7.5, the “pH of solubility sample solution in 5% dextrose” value ([2]; 5% dextrose (medium pH 4.7)) was 7.5 and the “pH of the solubility sample, FaSSGF” value [2] was 1.6. For the same compound, the “pH of the solubility sample, FaSSIF” value [2] was 6.5, the “pH of the solubility sample, FeSSIF” value [2] was 5.0 and the “pH of the solubility sample, Water” value [2] was 8.8. The Appearance ([3]; 2-8° C., 3 wk) was “White, free flowing powder with clumping”, the Appearance ([3]; 2-8° C., 5 wk) was “White, free flowing powder with clumping” and the “Hausner Ratio” value [4] was 1.32. The “Compressibility Index” value [4] was 24 and the “Relative humidity above which the salt is hygroscopic” value ([5]; DVS) was “above 75 % relative humidity”.
In the case of CC(CCCC(C)(C)O)C1CCC2C3CC=C4CC(OS(=O)(=O)O)CCC4(C)C3CCC12C (centres unmarked) [Salt #7], the “Solubility in FaSSGF (in words)” value ([1]; FaSSGF, room temperature) is reported as “high solubility”, the “Solubility in FaSSGF (in words)” value ([1]; FaSSGF, room temperature, listed as crystalline 25HC3S meglumine) is reported as “relatively high solubility” and the “Solubility in FaSSIF (in words)” value ([1]; FaSSIF, room temperature) is reported as “high solubility”. The “Solubility in FaSSGF” value ([1]; Fasted State Simulated Gastric Fluid, pH 1.6, room temperature, as free acid, LOD 0.0007 mg/mL, 1440 min) was 48 µg/mL, the “Solubility in FeSSIF (in words)” value ([1]; FeSSIF, room temperature) was “high solubility” and the “Solubility in saline / 0.9% sodium chloride (in words)” value ([1]; room temperature, listed as crystalline 25HC3S meglumine) was “low solubility”. For the same compound, the “pH … 0.9% Sodium Chloride” value ([2]; listed as 25HC3S meglumine) was 7.2, the “pH of the solubility sample, 5% Dextrose” value ([2]; listed as 25HC3S meglumine) was 7.2 and the “pH of the solubility sample, FaSSGF” value [2] was 1.6. The “pH of the solubility sample, FaSSIF” value ([2]; listed as 25HC3S meglumine) was 6.5, the “pH of the solubility sample, FeSSIF” value [2] was 5.0 and the “pH of the solubility sample, Water” value ([2]; listed as 25HC3S meglumine) was 8.5. The Appearance ([3]; 2-8° C., 3 wk, listed as 25HC3S meglumine) was “White, free flowing powder, no clumping”, the Appearance ([3]; 60° C., 1 wk (after 3 weeks at 2-8° C.), listed as 25HC3S meglumine) was “White, free flowing powder, no clumping” and the “Appearance after 3 weeks at 80° C.” value ([3]; 80° C., 3 weeks) was “completely burned”. The Appearance ([3]; 80° C., 3 wk, listed as 25HC3S meglumine) was “Light brown, partially melted material”, the “Compressibility Index” value ([4]; listed as 25HC3S meglumine) was 36 and the “Hausner Ratio” value ([4]; listed as 25HC3S meglumine) was 1.56. The “Water uptake, plateau above 35% RH” value ([5]; DVS, stable plateau above 35% relative humidity) was “about 3%”.
For CC(CCCC(C)(C)O)C1CCC2C3CC=C4CC(OS(=O)(=O)O)CCC4(C)C3CCC12C (centres unmarked) [Salt #4], the “Solubility in 5% Dextrose” value ([1]; 5% dextrose, room temperature, as free acid, ND = not detected, detection limit 0.7 μg/mL, 1440 min, listed as 25HC3S choline) was 93 µg/mL, the “Solubility in FaSSGF” value ([1]; FaSSGF, room temperature, as free acid, ND = not detected, detection limit 0.7 μg/mL, 1440 min, listed as 25HC3S choline) was 8 µg/mL and the “Solubility in FaSSGF (in words)” value ([1]; FaSSGF, room temperature, listed as crystalline 25HC3S choline) was “low solubility”. The “Solubility in FaSSIF” value ([1]; FaSSIF, room temperature, as free acid, 1440 min, listed as 25HC3S choline) was 152 µg/mL, the “Solubility in FaSSIF (in words)” value ([1]; FaSSIF, room temperature, listed as crystalline 25HC3S choline) was “relatively high solubility” and the “Solubility in FeSSIF” value ([1]; FeSSIF, room temperature, as free acid, 1440 min, listed as 25HC3S choline) was 827 µg/mL. For the same compound, the “Solubility in FeSSIF (in words)” value ([1]; FeSSIF, room temperature, listed as crystalline 25HC3S choline) was “relatively high solubility”, the “Solubility in ACN” value ([1]; acetonitrile, room temperature, as free acid, 1440 min, listed as 25HC3S choline) was 500 µg/mL and the “Solubility in EtOH” value ([1]; ethanol, room temperature, as free acid, ≥ = did not reach saturation, 1440 min, listed as 25HC3S choline) was 3400 µg/mL. For the same compound, the “Solubility in IPA” value ([1]; isopropyl alcohol, room temperature, as free acid, 1440 min, listed as 25HC3S choline) was 600 µg/mL, the “Solubility in MeOH” value ([1]; methanol, room temperature, as free acid, ≥ = did not reach saturation, 1440 min, listed as 25HC3S choline) was 17500 µg/mL and the “Solubility in saline / 0.9% sodium chloride (in words)” value ([1]; room temperature, listed as crystalline 25HC3S choline) was “low solubility”. For the same compound, the “Solubility in H2O” value ([1]; water, room temperature, as free acid, ND = not detected, detection limit 0.7 μg/mL, 1440 min, listed as 25HC3S choline) was 107 µg/mL, the “pH … 0.9% Sodium Chloride” value ([2]; listed as 25HC3S choline) was 8.2 and the “pH of the solubility sample, 5% Dextrose” value ([2]; listed as 25HC3S choline) was 7.3. The “pH of the solubility sample, FaSSGF” value [2] was 1.6, the “pH of the solubility sample, FaSSIF” value ([2]; listed as 25HC3S choline) was 6.5 and the “pH of the solubility sample, FeSSIF” value [2] was 5.0. For the same compound, the “pH of the solubility sample, Water” value ([2]; listed as 25HC3S choline) was 8.8, the Appearance ([3]; 2-8° C., 3 wk, listed as 25HC3S choline) was “White, free flowing powder with clumping” and the Appearance ([3]; 2-8° C., 5 wk) was “White, free flowing powder with clumping”. For the same compound, the Appearance ([3]; 80° C., 3 wk, listed as 25HC3S choline) was “White, free flowing powder with clumping”, the Appearance ([3]; 80° C., 5 wk) was “White, free flowing powder with clumping” and the “Compressibility Index” value ([4]; listed as 25HC3S choline) was 42. The “Hausner Ratio” value ([4]; listed as 25HC3S choline) was 1.72, the “Weight loss on return to 5% relative humidity” value ([5]; DVS desorption, 95% to 5% RH) was 0.5% and the “Reversibility of water uptake (in words)” value ([5]; DVS, RH reduced from 95% to 5%, listed as crystalline 25HC3S choline) was “no hysteresis; also recorded: reversibly lose all that water”. For the same compound, the “Hygroscopicity (in words)” value ([5]; DVS, listed as 25HC3S choline) was “surprisingly low hygroscopicity” and the “Hygroscopicity (in words)” value ([5]; DVS, listed as crystalline 25HC3S choline) was “not appreciably hygroscopic; also recorded: less hygroscopic”.
